Measurements: ChEMBL document CHEMBL1144962, “A new sterol sulfate, Sch 572423, from a marine sponge, Topsentia sp” (Bioorg Med Chem Lett, 2003)
pIC50: −log10 of the molar value.

Molecular target: P2Y purinoceptor 12 (Homo sapiens, UniProt Q9H244)
Experiment: Binding affinity against Purinergic receptor P2Y12 using [3H]2-methylthio-ADP as radioligand
Type: tissue-based

P2Y purinoceptor 12, sequence (Q9H244 whole entry): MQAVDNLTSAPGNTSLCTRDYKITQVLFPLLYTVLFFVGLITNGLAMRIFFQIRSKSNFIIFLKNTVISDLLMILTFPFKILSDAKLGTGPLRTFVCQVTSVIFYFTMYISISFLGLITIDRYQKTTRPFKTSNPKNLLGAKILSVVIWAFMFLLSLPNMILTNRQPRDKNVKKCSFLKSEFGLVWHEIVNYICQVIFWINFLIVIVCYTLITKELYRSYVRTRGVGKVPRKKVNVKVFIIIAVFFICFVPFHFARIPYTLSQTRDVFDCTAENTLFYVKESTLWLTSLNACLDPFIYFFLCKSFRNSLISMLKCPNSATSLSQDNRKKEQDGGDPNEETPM

pIC50 | SMILES
5.66 | CC(C(O)C(O)[C@@H](C)C1CC[C@H]2[C@@H]3CC[C@H]4C[C@H](OS(=O)(=O)O)[C@H](OS(=O)(=O)O)C[C@]4(C)[C@@]3(C)CC[C@]12C)C(C)(C)C (some centres not stated)
6.32 | CC(CC[C@@H](C)C1CC[C@H]2[C@@H]3C[C@H](OS(=O)(=O)O)[C@H]4C[C@H](OS(=O)(=O)O)[C@H](OS(=O)(=O)O)C[C@]4(C)[C@@]3(C)CC[C@]12C)C(C)(C)C (some centres not stated)
